The molecules below were run against T1, full length Keap1 protein / full length NRF2 protein (Homo sapiens, UniProt Q14145) (assay: NRF2-Keap1 TR-FRET Low Protein Assay).
T1 construct: full length NRF2 protein and full length Keap1 protein (Keap1 exists a dimer) are used; His
Format: binding
Summary of the method: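 Compounds were preincubated with Keap1 FlagHis (1.25 nM) for 2.25 h at 37° C, then biotin-NRF2 (2.5 nM) was added for 1.25 h at 4° C in pH 8.0 Tris buffer with DTT/CHAPS. After 1 h with Eu-streptavidin/anti-Flag APC, the 665/615 nm ratio was normalized to controls and pIC50 fitted by four-parameter equation.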

T1 sequence (Q14145 whole entry): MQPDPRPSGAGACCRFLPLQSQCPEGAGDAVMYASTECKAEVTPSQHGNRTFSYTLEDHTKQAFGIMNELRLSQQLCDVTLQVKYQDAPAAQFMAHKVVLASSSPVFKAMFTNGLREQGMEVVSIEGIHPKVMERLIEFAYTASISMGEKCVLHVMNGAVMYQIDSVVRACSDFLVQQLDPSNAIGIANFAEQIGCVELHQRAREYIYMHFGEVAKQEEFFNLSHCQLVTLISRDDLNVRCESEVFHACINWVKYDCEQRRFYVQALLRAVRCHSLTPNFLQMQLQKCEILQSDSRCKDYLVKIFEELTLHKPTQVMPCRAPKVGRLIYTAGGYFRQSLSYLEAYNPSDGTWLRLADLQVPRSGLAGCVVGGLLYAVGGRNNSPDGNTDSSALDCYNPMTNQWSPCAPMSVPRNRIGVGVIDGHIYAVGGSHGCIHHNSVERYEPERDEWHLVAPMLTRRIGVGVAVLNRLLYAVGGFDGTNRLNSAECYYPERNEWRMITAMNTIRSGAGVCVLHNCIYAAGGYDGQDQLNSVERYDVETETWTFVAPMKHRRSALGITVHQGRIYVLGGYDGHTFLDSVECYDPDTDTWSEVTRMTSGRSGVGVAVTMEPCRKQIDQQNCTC

Structure (SMILES) | EC50 [µM]
C[C@H]1Cc2ccc(C(F)(F)F)cc2S(=O)(=O)N([C@H]2CCc3c2cccc3-n2ncc(C(=O)O)c2[C@@H]2C[C@H]2c2cn(C)nn2)C1 [Example 26a, 1-((S)-1-((S)-4-Methyl-1,1-dioxido-8-(trifluoromethyl)-4,5-dihydrobenzo[f][1,2]thiazepin-2(3H)-yl)-2,3-dihydro-1H-inden-4-yl)-5-((1R,2R)-2-(1-methyl-1H-1,2,3-triazol-4-yl)cyclopropyl)-1H-pyrazole-4-carboxylic acid] | 0.1 to 1
COc1ccccc1S(=O)(=O)N(C)C1CCc2ccc(-n3ncc(C(=O)O)c3[C@@H]3C[C@H]3c3cn(C)nn3)cc21 (stereo partly drawn) [Example 27, 1-(3-(2-methoxy-N-methylphenylsulfonamido)-2,3-dihydro-1H-inden-5-yl)-5-((1R,2R)-2-(1-methyl-1H-1,2,3-triazol-4-yl)cyclopropyl)-1H-pyrazole-4-carboxylic acid] | 10 to 100
CC[C@@H]1CN(Cc2cc(-n3ncc(C(=O)O)c3[C@@H]3C[C@H]3c3cn(C)nn3)ccc2C)Cc2ccccc2O1 [Example 28] | 1 to 10
C[C@H]1Cc2cc(C(F)(F)F)ccc2S(=O)(=O)N(Cc2cccc(-n3ncc(C(=O)O)c3[C@@H]3C[C@H]3c3cnn(C)c3)c2)C1 [Example 30, 1-(3-(((S)-4-Methyl-1,1-dioxido-7-(trifluoromethyl)-4,5-dihydrobenzo[f][1,2]thiazepin-2(3H)-yl)methyl)phenyl)-5-(trans-2-(1-methyl-1H-pyrazol-4-yl)cyclopropyl)-1H-pyrazole-4-carboxylic acid] | 0.1 to 1

Next, values leading:

EC50 [µM] | Structure (SMILES)
0.01 to 0.1 | CC[C@@H]1CN(Cc2cc(-n3ncc(C(=O)O)c3C3C[C@H]3c3cn(C)nn3)ccc2C)S(=O)(=O)c2ccccc2O1 (stereo partly drawn) [Example 25]
0.01 to 0.1 | CC[C@@H]1CN(Cc2cccc(-n3ncc(C(=O)O)c3[C@@H]3C[C@H]3c3cn(CC(F)(F)F)nn3)c2)S(=O)(=O)c2ccccc2O1 [Example 29]
1 to 10 | CC[C@@H]1CN(Cc2cccc(-n3ncc(C(=O)O)c3[C@@H]3C[C@H]3c3cnn(C)c3)c2)S(=O)(=O)c2ccccc2O1 [Example 31, 1-(3-(((R)-4-ethyl-1,1-dioxido-3,4-dihydro-2H-benzo[b][1,4,5]oxathiazepin-2-yl)methyl)-phenyl)-5-(trans-2-(1-methyl-1H-pyrazol-4-yl)cyclopropyl)-1H-pyrazole-4-carboxylic acid]
1 to 10 | C[C@H]1Cc2ccccc2S(=O)(=O)N(Cc2cccc(-n3ncc(C(=O)O)c3[C@@H]3C[C@H]3c3cnn(C)c3)c2)C1 [Example 32, 1-(3-(((S)-4-methyl-1,1-dioxido-4,5-dihydrobenzo[f][1,2]thiazepin-2(3H)-yl)methyl)-phenyl)-5-(trans-2-(1-methyl-1H-pyrazol-4-yl)cyclopropyl)-1H-pyrazole-4-carboxylic acid]
10 to 100 | C[C@@H]1Cc2cc(C(F)(F)F)ccc2S(=O)(=O)N(Cc2cccc(-n3ncc(C(=O)O)c3[C@@H]3C[C@H]3c3cnn(C)c3)c2)C1 [Example 33, 1-(3-(((R)-4-methyl-1,1-dioxido-7-(trifluoromethyl)-4,5-dihydro-benzo[f][1,2]thiazepin-2(3H)-yl)methyl)phenyl)-5-(trans-2-(1-methyl-1H-pyrazol-4-yl)cyclopropyl)-1H-pyrazole-4-carboxylic acid]

— patent publication US20200071310A1, “N-ARYL PYRAZOLES AS NRF2 REGULATORS” (GLAXOSMITHKLINE INTELLECTUAL PROPERTY DEVELOPMENT LIMITED, priority 2016, published 2020)
